In US9096591B2, “Tetracyclic compounds” (Medivation Technologies, Inc., priority 2007, dated 2015):

Key:
[1] = target: T1, human recombinant histamine H1 receptor (Homo sapiens, UniProt P35367); assay: Histamine H1 radioligand binding ([3H]Pyrilamine); settings: percent inhibition of specific binding; screened at 1 μM; read-out: Inhibition of ligand binding, Hist. H1
T1 construct: expressed in transfected cells; host or cells: CHO cells
Outline: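 CHO-expressed receptor in modified Tris-HCl buffer (50 mM, pH 7.4; 2 mM MgCl2, 100 mM NaCl, 250 mM sucrose); bound ligand measured after filtration and washing.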

[2] = target: T2, human recombinant serotonin (5-Hydroxytryptamine) 5-HT6 receptor (Homo sapiens, UniProt P50406); assay: Serotonin 5-HT6 radioligand binding ([3H]LSD); design: Inhibition of ligand binding, Ser. 5-HT6: concentration or dose not given beside the values; settings: percent inhibition of specific binding
T2 construct: expressed in transfected cells; host or cells: human HeLa cells
Source text: Receptor proteins were filtered and washed, the filters were then counted to determine [3H]LSD specifically bound. […] Biochemical assay results are presented as the percent inhibition of specific binding in Table 6.

[3] = target: T3, human recombinant adrenergic α1D receptor (Homo sapiens, UniProt P25100); assay: Adrenergic α1D radioligand binding ([3H]Prozosin); design: Inhibition of ligand binding, Adren. alpha1D: concentration or dose not given beside the values; settings: percent inhibition of specific binding
T3 construct: expressed in transfected cells; host or cells: HEK-293 cells
T3 sequence (P25100 1-572): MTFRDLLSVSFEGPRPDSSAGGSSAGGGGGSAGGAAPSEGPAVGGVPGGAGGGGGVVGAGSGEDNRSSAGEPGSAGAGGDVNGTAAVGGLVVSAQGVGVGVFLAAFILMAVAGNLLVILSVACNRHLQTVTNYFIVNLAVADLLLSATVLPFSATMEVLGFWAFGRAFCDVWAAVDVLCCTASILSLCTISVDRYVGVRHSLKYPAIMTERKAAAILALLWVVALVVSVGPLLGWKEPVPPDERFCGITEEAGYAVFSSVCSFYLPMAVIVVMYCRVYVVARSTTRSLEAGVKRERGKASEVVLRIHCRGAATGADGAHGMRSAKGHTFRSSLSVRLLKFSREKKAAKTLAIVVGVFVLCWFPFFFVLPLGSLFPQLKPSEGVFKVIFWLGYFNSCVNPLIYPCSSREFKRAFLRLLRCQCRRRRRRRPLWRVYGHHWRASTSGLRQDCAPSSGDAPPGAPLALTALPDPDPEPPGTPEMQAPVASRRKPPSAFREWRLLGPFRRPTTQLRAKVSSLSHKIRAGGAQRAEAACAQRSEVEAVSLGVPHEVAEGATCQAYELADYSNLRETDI
Experimental: Compounds of invention were incubated with 0.6 nM [^3H]Prozosin for 60 minutes at 25° C. Non-specific binding was estimated in the presence of 10 μM phentolamine. Receptor proteins were filtered and washed, the filters were then counted to determine [^3H]Prozosin specifically bound. […] Biochemical assay results are presented as the percent inhibition of specific binding in Table 6.

[4] = target: T4, human recombinant adrenergic α2B receptor (Homo sapiens, UniProt P18089); assay: Adrenergic α2B radioligand binding ([3H]Rauwolscine); design: Inhibition of ligand binding, Adren. alpha2B: concentration or dose not given beside the values; settings: percent inhibition of specific binding
T4 construct: expressed in transfected cells; host or cells: CHO-K1 cells
T4 sequence (P18089 1-450): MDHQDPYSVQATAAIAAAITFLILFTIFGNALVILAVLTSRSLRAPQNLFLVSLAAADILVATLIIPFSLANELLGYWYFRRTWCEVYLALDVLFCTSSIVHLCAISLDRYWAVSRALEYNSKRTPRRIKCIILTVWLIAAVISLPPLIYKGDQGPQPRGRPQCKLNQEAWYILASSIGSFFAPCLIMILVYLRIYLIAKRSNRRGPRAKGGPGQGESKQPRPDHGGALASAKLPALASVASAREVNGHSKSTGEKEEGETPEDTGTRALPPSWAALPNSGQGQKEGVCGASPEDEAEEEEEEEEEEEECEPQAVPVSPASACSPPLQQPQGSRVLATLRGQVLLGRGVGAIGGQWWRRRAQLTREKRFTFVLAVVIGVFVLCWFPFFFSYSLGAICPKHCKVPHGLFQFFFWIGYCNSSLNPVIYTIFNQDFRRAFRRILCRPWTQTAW
Outline: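 Incubation ran 60 minutes at 25 °C in modified Tris-HCl buffer (50 mM, pH 7.4, 12.5 mM MgCl2, 1 mM EDTA, 0.2% BSA) using CHO-K1-expressed human receptor.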

[5] = target: T5, human recombinant serotonin (5-Hydroxytryptamine) 5-HT2A receptor (Homo sapiens, UniProt P28223); assay: Serotonin 5-HT2A radioligand binding ([3H]Ketanserin); settings: percent inhibition of specific binding
T5 construct: expressed in transfected cells; host or cells: CHO-K1 cells
Experimental: Compounds of the invention were incubated with 0.5 nM [^3H]Ketanserin for 60 minutes at 25° C. Non-specific binding was estimated in the presence of 1 μM Mianserin. Receptor proteins were filtered and washed, the filters were then counted to determine [^3H]Ketanserin specifically bound. […] Biochemical assay results are presented as the percent inhibition of specific binding in Table 6.

[6] = target: T6, human recombinant dopamine D2L receptor (Homo sapiens, UniProt P14416); assay: Dopamine D2L radioligand binding ([3H]Spiperone); settings: percent inhibition of specific binding
T6 construct: expressed in transfected cells; host or cells: CHO cells
Experimental: Non-specific binding was estimated in the presence of 10 μM Haloperidol. Receptor proteins were filtered and washed, the filters were then counted to determine [^3H]Spiperone specifically bound. […] Biochemical assay results are presented as the percent inhibition of specific binding in Table 6.

T5 sequence (P28223 whole entry): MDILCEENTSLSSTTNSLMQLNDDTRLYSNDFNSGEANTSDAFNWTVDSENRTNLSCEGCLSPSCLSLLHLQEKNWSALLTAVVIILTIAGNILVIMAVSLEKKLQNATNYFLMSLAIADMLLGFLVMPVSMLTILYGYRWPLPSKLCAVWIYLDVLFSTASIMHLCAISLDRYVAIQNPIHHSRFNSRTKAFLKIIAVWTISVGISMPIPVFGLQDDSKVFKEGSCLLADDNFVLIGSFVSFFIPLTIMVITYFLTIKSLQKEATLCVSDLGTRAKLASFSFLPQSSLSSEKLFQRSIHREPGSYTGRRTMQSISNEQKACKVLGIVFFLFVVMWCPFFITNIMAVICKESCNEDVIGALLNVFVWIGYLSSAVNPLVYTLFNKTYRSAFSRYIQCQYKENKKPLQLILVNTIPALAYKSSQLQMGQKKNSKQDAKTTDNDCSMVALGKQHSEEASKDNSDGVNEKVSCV
T6 sequence (P14416 whole entry): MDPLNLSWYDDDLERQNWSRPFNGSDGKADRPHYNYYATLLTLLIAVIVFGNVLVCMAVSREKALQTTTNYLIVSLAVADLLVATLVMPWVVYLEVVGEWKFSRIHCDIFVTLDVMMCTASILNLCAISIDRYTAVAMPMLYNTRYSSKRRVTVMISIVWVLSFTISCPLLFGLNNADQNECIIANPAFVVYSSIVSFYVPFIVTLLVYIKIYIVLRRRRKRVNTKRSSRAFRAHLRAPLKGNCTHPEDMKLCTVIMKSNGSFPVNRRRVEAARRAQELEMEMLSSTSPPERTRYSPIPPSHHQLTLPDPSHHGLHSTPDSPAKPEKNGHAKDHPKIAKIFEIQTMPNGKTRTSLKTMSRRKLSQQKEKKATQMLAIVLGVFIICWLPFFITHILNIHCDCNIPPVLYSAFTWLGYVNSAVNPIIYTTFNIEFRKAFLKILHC
T2 sequence (P50406 whole entry): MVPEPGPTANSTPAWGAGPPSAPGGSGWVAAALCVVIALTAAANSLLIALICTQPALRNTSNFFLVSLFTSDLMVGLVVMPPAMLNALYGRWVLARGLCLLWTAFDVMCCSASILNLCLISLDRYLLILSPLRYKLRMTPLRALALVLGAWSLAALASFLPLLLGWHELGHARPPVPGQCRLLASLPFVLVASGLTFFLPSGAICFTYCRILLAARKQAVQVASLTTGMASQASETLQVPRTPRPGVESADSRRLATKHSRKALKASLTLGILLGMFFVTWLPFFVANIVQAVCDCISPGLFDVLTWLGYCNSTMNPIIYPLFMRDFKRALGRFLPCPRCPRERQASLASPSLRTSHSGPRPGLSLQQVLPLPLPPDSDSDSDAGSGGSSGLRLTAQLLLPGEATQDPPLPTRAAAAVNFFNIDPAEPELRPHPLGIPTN
T1 sequence (P35367 whole entry): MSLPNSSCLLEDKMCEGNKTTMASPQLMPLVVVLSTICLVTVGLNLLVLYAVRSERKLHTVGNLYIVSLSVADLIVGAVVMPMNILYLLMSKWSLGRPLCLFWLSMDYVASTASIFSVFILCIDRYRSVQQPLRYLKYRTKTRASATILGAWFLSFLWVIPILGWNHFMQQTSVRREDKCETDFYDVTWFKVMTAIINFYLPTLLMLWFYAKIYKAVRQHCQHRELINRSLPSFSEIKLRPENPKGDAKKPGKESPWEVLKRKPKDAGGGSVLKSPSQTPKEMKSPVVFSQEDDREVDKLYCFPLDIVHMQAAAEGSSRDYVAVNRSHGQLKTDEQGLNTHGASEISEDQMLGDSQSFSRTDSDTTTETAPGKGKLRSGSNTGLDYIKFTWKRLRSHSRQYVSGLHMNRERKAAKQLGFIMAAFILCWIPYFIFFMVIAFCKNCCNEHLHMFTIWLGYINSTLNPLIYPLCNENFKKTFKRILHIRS

SMILES | inhibition at 1 µM [1] [%] | Inhibition of ligand binding, Ser. 5-HT6 [2] [%] | Inhibition of ligand binding, Adren. alpha1D [3] [%] | Inhibition of ligand binding, Adren. alpha2B [4] [%] | Inhibition of ligand binding, Ser. 5-HT2A [5] [%] | Inhibition of ligand binding, Dop. D2L [6] [%]
Cc1ccc2c(c1)c1c(n2CC(=O)N2CCCC(C)C2)CCN(C)C1 (stereo not drawn) [Compound 401, 2-(1,2,3,4-tetrahydro-2,8-dimethylpyrido[4,3-b]indol-5-yl)-1-(3-methylpiperidin-1-yl)ethanone] | 36 | 1 | 1 | 3 | 17 | −12
Cc1ccc(CCn2c3c(c4cc(Cl)ccc42)CN(c2cccc(C(F)(F)F)c2)CC3)cn1 [Compound 403, 8-Chloro-5-[2-(6-methyl-pyridin-3-yl)-ethyl]-2-(3-trifluoromethyl-phenyl)-2,3,4,5-tetrahydro-1H-pyrido[4,3-b]indole] | 54 | 0 | 19 | 46 | 32 | 2
Cc1ccc(CCn2c3c(c4cc(Cl)c(F)cc42)CN(C)CC3)cn1 [Compound 404, 8-Chloro-7-fluoro-2-methyl-5-[2-(6-methyl-pyridin-3-yl)-ethyl]-2,3,4,5-tetrahydro-1H-pyrido[4,3-b]indole] | 102 | 94 | 81 | 95 | 88 | 35
CN1CCN(CCn2c3c(c4cc(Cl)ccc42)CN(C)CC3)CC1 [Compound 417, 8-chloro-2,3,4,5-tetrahydro-2-methyl-5-(2-(4-methylpiperazin-1-yl)ethyl)-1H-pyrido[4,3-b]indole] | 10 | 5 | 1 | −1 | 23 | −12
CN1CCc2c(c3cc(Cl)ccc3n2CCc2cncnc2)C1 [Compound 424, 8-Chloro-2-methyl-5-(2-pyrimidin-5-yl-ethyl)-2,3,4,5-tetrahydro-1H-pyrido[4,3-b]indole] | 104 | 82 | 57 | 94 | 52 | 17
Cc1ccc2c(c1)c1c(n2CCc2cncc(C(F)(F)F)c2)CCN(C)C1 [Compound 425, 5-(2-(5-(trifluoromethyl)pyridin-3-yl)ethyl)-2,3,4,5-tetrahydro-2,8-dimethyl-1H-pyrido[4,3-b]indole] | 100 | 64 | 65 | 99 | 84 | −1
CN1CCc2c(c3cc(Cl)ccc3n2CCc2cncc(C(F)(F)F)c2)C1 [Compound 426, 8-chloro-5-(2-(5-(trifluoromethyl)pyridin-3-yl)ethyl)-2,3,4,5-tetrahydro-2-methyl-1H-pyrido[4,3-b]indole] | 99 | 65 | 69 | 98 | 85 | −7
Cc1cncc(CCn2c3c(c4cc(C)ccc42)CN(C)CC3)c1 [Compound 429, 2,3,4,5-tetrahydro-2,8-dimethyl-5-(2-(5-methylpyridin-3-yl)ethyl)-1H-pyrido[4,3-b]indole] | 100 | 79 | 69 | 115 | 76 | 23
Cc1ccc2c(c1)c1c(n2CCc2cncc(Cl)c2)CCN(C)C1 [Compound 443, 5-(2-(5-chloropyridin-3-yl)ethyl)-2,3,4,5-tetrahydro-2,8-dimethyl-1H-pyrido[4,3-b]indole] | 102 | 96 | 91 | 117 | 94 | 29
CN1CCc2c(c3cc(Cl)ccc3n2CCc2cncc(Cl)c2)C1 [Compound 444, 8-chloro-5-(2-(5-chloropyridin-3-yl)ethyl)-2,3,4,5-tetrahydro-2-methyl-1H-pyrido[4,3-b]indole] | 101 | 96 | 91 | 113 | 95 | 32
CCCc1ccc(CCn2c3c(c4cc(C)ccc42)CN(C)CC3)cn1 [Compound 452, 2,8-Dimethyl-5-[2-(6-propyl-pyridin-3-yl)-ethyl]-2,3,4,5-tetrahydro-1H-pyrido[4,3-b]indole] | 109 | 93 | 82 | 104 | 97 | 52
CC(Cn1c2c(c3ccccc31)CN(C)CC2)c1ccc(F)cc1 (stereo not drawn) [Compound 455] | 80 | 99 | 81 | 120 | 99 | 88
Cc1ccc2c(c1)c1c(n2CC(C)c2ccc(F)cc2)CCN(C)C1 (stereo not drawn) [Compound 456, 5-(2-(4-fluorophenyl)propyl)-2,3,4,5-tetrahydro-2,8-dimethyl-1H-pyrido[4,3-b]indole] | 99 | 98 | 96 | 110 | 104 | 76
Cc1ccc2c(c1)c1c(n2CC(=O)N2CCN(C)CC2)CCN(C)C1 [Compound 459, 2-(1,2,3,4-tetrahydro-2,8-dimethylpyrido[4,3-b]indol-5-yl)-1-(4-methylpiperazin-1-yl)ethanone] | 0 | −10 | 0 | −20 | 1 | −7
